Experimental data published in patent US20090285834A1, “NOVEL MEMORY CTL INDUCTION POTENTIATOR” (DAINIPPON SUMITOMO PHARMA CO., LTD., priority 2005, published 2009).

Assays:
cytokine production = conditions: in vivo; cited from earlier work
EG7 (OVA-expressing EL4) = type: in vivo, mouse (C57BL/6NCrj); conditions: with peptide vaccine; EG7 transplanted 21 days after peptide administration; followed to day 28; compared with PBS; FIG. 5
Description: Twenty-one days after peptide administration, 5×10^6 EG7 (OVA-expressing EL4: ATCC) suspended in 100 μL PBS was intradermally transplanted at the right flank using a 27 G injection needle after shaving. Tumor diameters (minimum diameter, maximum diameter) were measured using electronic calipers twice a week from 1 week to 28 days after EG7 transplantation, and tumor volumes were calculated.

lymphocytes = conditions: in vivo; cited from earlier work

Compound | time from which cytokine production is exhibited after administration (cytokine production) [h] | tumor growth suppression (tumor volume) (EG7 (OVA-expressing EL4)) | time at which the reduction in lymphocytes reaches a peak (lymphocytes) [days]
CCOCc1nc2c(N)nc3ccccc3c2n1CC(C)(C)O [R848] | ≥ 1 | a slight suppression against proliferation was observed | 
O=P1(N(CCCl)CCCl)NCCCO1 (stereo not drawn) [cyclophosphamide] |  |  | 3 to 4
